The test system of data set [1] is RAW 264.7 cells. Put plainly: Lactate dehydrogenase (LDH) cytotoxicity assay. As to conditions: for toxicity (LDH release), in words: RAW 264.7 cells, cell viability by LDH release. Format: cell-based, murine. How it is done:
(§1) LDH assay was used to evaluate the toxicity of the studied samples towards macrophage cultures. The release of LDH (cytoplasmic enzyme lactate dehydrogenase) from RAW 264.7 cells treated with samples was determined using 50 µL of cell culture supernatant collected 24 h after the treatment, as described in the previous section. The LDH release, which represents an indirect indication of cytotoxicity, was determined colorimetrically using a commercial kit (Doles Reagentes e Equipamentos para Laboratorios Ltda., Goiânia, Brazil). The specific release was calculated as a percentage of the controls: non-treated macrophages as the negative control (O.D. 0.249, cytotoxicity 1.99% ± 0.62%) and 1% Triton X-100 (Vetec Chem., Duque de Caxias, Brazil) detergent treated macrophages as the positive control (O.D. 1.278, cytotoxicity 99.95% ± 2.26%). Final concentrations of DMSO, used as the carrier solvent for the samples, were tested in parallel as a control. Cytotoxicity was shown as percentage of controls. Tests were performed in triplicate and the mean value and standard deviation were calculated.
For orientation: LDH in the medium is a marker of cell lysis.

Data set [2] in a line: Lactate dehydrogenase (LDH) cytotoxicity assay. It counts as cell-based, murine. As to conditions: mouse, RAW 264.7 macrophage cells; LDH release from RAW 264.7 cells, 24 h after treatment. How it is done: as §1
In data set [3] the test system is NO production by LPS-activated RAW 264.7 macrophages. The experiment in a line: NO production by LPS-stimulated RAW 264.7 macrophages (Griess test). Format: cell-based, murine. As to conditions: Mus musculus, RAW264.7; for IC50: LPS-stimulated RAW 264.7 macrophages, 24 h incubation. The procedure:
(§2) The murine peritoneal macrophage cell line RAW 264.7 was obtained from the American Type Culture Collection (ATCC, Rockville, MD, USA) and grown at 37 °C and 5% CO2 in DMEM F-12 that was supplemented with 10% FCS and gentamicin (50 µg/mL). RAW 264.7 cells (1 × 10^5 cells/well) were seeded in flat bottom 96-well tissue culture plates (Corning Inc., Corning, NY, USA) in the presence or absence of various concentrations of the samples (100, 20 and 4 µg/mL) and/or LPS (Escherichia coli 055:B5; Sigma-Aldrich). After a 24 h incubation period, culture supernatants were collected for NO and TNF-α assays. Nitrite, a stable NO metabolite, was determined by using the Griess test. As a positive control of inhibitory activity, intact, untreated macrophages were used. As a negative control, macrophages stimulated with 1 µg/mL LPS were used. […] TNF-α was measured by an L929 fibroblast bioassay. This assay system uses murine L929 cells sensitive to TNF-α. For this, murine fibroblast cell line L929 cells (ATCC) (2 × 10^5 cells/well) were seeded in flat bottom 96-well tissue culture plates (Corning Inc.) 24 h before of being inoculated with macrophage culture supernatant and actinomycin D (2 µg/mL) added. After 24 h of incubation with macrophage culture supernatant, L929 viability was assayed by MTT [3-(4,5-dimethylthiazol-2-yl)-2,5diphenyltetrazolium bromide] method. The cytokine levels were calculated by using a purified recombinant mouse cytokine to obtain a standard curve that correlates cellular viability and TNF-α concentration.

The subject of data set [4] is Mycobacterium bovis BCG strain Moreau. The experiment in a line: microbe, parasite or virus in culture. It counts as cell-based. The following applies: Mycobacterium tuberculosis variant bovis BCG, 168 h, read-out: IC50 M. bovis BCG.
Data set [5] relates to TNF-α production by LPS-activated RAW 264.7 macrophages. Put plainly: TNF-α production by LPS-stimulated RAW 264.7 macrophages (L929 fibroblast bioassay). It counts as cell-based, murine. The following applies: Mus musculus, RAW264.7, 24 h incubation. The procedure:
as §2

With Triton X-100 [reference compound], the “cytotoxicity (specific LDH release, percentage of controls)” value in data set [1] (1% detergent, positive control, RAW 264.7 macrophages) was 99.95% ± 2.26.

As for `CC1CCC23C1CCC2(C)CC(C)C3(C)O` (stereo not drawn) [Compound 5, (1S*,2S*,3S*,5S*,8S*,9S*)-2,3,5,9-tetramethyltricyclo[6.3.0.01.5]undecan-2-ol], the IC50 (usually the point on the concentration scale where inhibition reaches its midpoint) at 24 h in data set [2] turned out to be 416 ± 4.9 µM. Moreover, the “toxicity (LDH release), in words” value in data set [1] is listed as “no toxicity whatsoever”. Moreover, the IC50 in data set [3] came out at 74.6 ± 5.8 µM; in data set [4] it was 205 ± 7.6 µM; in data set [5] it was 393.4 ± 0.4 µM.

Compound `C=C1CC(O)C(Br)C(C)(C)C12CCC(C)(O)C(Cl)C2` (centres unmarked) [Compound 2] had an IC50 at 24 h in data set [2] above 284 µM. Also, the “toxicity (LDH release), in words” value in data set [1] is given as “no toxicity whatsoever”. The values for the IC50 in data set [3], in data set [4] and in data set [5] were above 284 µM, 80.2 ± 4.3 µM and above 284 µM, respectively.

Regarding `C=C1C[C@@H](O)CC(C)(C)[C@]12CCC(C)=C(Cl)C2` [Compound 3, Debromoelatol], the concentration for half-maximal inhibition (IC50) at 24 h in data set [2] is above 392 µM. Moreover, in data set [1], the “toxicity (LDH release), in words” value was “no toxicity whatsoever”. Further, the IC50 in data set [3] came to 69.1 ± 4.7 µM; in data set [4], 82.4 ± 4.7 µM; in data set [5], 134 ± 7.4 µM.

Turning to `[H]/N=C(/NC)NCCC[C@H](N)C(=O)O` [L-NMMA, L-N-monomethyl-arginine, reference compound], the 50% inhibitory concentration (IC50) in data set [3] was 71.3 ± 4.4 µM. Further, the inhibition (in general, the percentage by which the read-out fell short of the control) at 20 µg/mL in data set [3] (positive control at 20 µg/mL) was 59.2%.

In data set [2], `C=C1CC[C@@H](Br)C(C)(C)[C@]12CC[C@](C)(Br)[C@@H](Cl)C2` [Compound 4, obtusane] gave an IC50 at 24 h of 197.2 ± 1 µM. The “toxicity (LDH release), in words” value in data set [1] is “only moderately toxic”. Moreover, the figures for the IC50 in data set [3], in data set [4] and in data set [5] were 44.9 ± 3 µM, 44.7 ± 4 µM and above 251 µM, respectively.

These data come from article PMC6271906, “Sesquiterpenes from the Brazilian Red Alga Laurencia dendroidea J. Agardh” (Molecules, 2014).
